Earlier results, collected in patent publication US9572829B2, “Treatment of ocular disorders” (Massachusetts Eye and Ear Infirmary, priority 2004, dated 2017).

Set-up: unit not given here
Details: typical value, general statement

Compound | Time that photosensitizer persists in the target neovasculature
CC(=O)[O-].CC(=O)[O-].CCc1c(CC)c2cc3nc(cnc4cc(OCCOCCOCCOC)c(OCCOCCOCCOC)cc4ncc4nc(cc1[n-]2)C(CCCO)=C4C)C(C)=C3CCCO.O.[Lu+3] [lutetium texaphyrin] | about twenty
benzoporphyrin derivative | about fifty
C=Cc1c(C)c2cc3nc(c(CC(=O)N[C@@H](CC(=O)O)C(=O)O)c4[nH]c(cc5nc(cc1[nH]2)C(C)=C5CC)c(C)c4C(=O)O)[C@@H](CCC(=O)O)[C@@H]3C [N-aspartyl chlorin e6] | about twenty
